Measurements: ChEMBL document CHEMBL4507293 (2021)

What was measured:
[1] = molecular target: 3',5'-cyclic-AMP phosphodiesterase 4A (Homo sapiens, UniProt P27815); experiment: Biochemical assay (PDE4A)
[2] = test system: Tyrosine-protein kinase ABL1 (Homo sapiens), P00519 [T315I]; conditions: Compound concentration 100.0 nM
[3] = molecular target: Activin receptor type-2B (Homo sapiens) (UniProt Q13705); conditions: Compound concentration 100.0 nM
[4] = molecular target: Calcium/calmodulin-dependent protein kinase type 1 (Homo sapiens) (UniProt Q14012); conditions: Compound concentration 100.0 nM
[5] = molecular target: Cyclin-dependent kinase 19 (Homo sapiens) (UniProt Q9BWU1); conditions: Compound concentration 100.0 nM
[6] = molecular target: Cyclin-dependent kinase 2 (Homo sapiens) (UniProt P24941); conditions: Compound concentration 100.0 nM
[7] = molecular target: Cyclin-dependent kinase 7 (Homo sapiens) (UniProt P50613); conditions: Compound concentration 100.0 nM
Chain of Cyclin-dependent kinase 7 (Homo sapiens) (P50613 whole entry): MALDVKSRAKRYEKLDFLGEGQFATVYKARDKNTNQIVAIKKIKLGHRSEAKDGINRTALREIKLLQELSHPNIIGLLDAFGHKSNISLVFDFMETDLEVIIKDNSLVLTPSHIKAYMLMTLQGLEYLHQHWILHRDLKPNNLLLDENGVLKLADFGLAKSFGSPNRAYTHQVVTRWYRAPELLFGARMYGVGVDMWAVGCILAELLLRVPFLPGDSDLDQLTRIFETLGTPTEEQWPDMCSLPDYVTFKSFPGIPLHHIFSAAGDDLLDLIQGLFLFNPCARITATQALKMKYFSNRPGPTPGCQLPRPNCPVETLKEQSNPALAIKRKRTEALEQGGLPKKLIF

[8] = molecular target: Cyclin-dependent kinase-like 1 (Homo sapiens) (UniProt Q00532); conditions: Compound concentration 100.0 nM
[9] = molecular target: Dual specificity protein kinase CLK1 (Homo sapiens) (UniProt P49759); conditions: Compound concentration 100.0 nM
[10] = test system: Epidermal growth factor receptor (Homo sapiens), P00533 [UNDEFINED MUTATION]; conditions: Compound concentration 100.0 nM
[11] = test system: Epidermal growth factor receptor (Homo sapiens), P00533 [UNDEFINED MUTATION]; conditions: Compound concentration 100.0 nM; remark: listed apart in the source
[12] = test system: Epidermal growth factor receptor (Homo sapiens), P00533 [L861Q]; conditions: Compound concentration 100.0 nM
[13] = molecular target: Ephrin type-B receptor 2 (Homo sapiens) (UniProt P29323); conditions: Compound concentration 100.0 nM
[14] = molecular target: Mitogen-activated protein kinase 4 (Homo sapiens) (UniProt P31152); conditions: Compound concentration 100.0 nM
Chain of Mitogen-activated protein kinase 4 (Homo sapiens) (P31152 whole entry): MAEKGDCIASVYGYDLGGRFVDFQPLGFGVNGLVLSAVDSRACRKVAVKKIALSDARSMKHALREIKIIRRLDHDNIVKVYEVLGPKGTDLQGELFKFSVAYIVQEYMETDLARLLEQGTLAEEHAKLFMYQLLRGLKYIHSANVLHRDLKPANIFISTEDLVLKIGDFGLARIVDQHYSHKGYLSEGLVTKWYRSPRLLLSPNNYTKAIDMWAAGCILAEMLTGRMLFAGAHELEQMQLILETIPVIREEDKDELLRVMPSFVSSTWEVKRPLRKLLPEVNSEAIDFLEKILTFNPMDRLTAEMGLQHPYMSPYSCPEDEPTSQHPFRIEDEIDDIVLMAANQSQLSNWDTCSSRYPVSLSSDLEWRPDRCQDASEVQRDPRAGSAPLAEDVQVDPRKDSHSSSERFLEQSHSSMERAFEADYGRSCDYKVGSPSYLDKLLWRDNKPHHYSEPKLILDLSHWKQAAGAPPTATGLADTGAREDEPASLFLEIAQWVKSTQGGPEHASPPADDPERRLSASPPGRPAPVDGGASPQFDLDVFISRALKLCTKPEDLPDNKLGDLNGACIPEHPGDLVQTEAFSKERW

[15] = test system: Receptor-type tyrosine-protein kinase FLT3 (Homo sapiens), P36888 [D835V]; conditions: Compound concentration 100.0 nM
[16] = test system: Receptor-type tyrosine-protein kinase FLT3 (Homo sapiens), P36888 [UNDEFINED MUTATION]; conditions: Compound concentration 100.0 nM
[17] = molecular target: Beta-adrenergic receptor kinase 1 (Homo sapiens) (UniProt P25098); conditions: Compound concentration 100.0 nM
[18] = molecular target: Insulin receptor-related protein (Homo sapiens) (UniProt P14616); conditions: Compound concentration 100.0 nM
[19] = test system: Mast/stem cell growth factor receptor Kit (Homo sapiens), P10721 [L576P]; conditions: Compound concentration 100.0 nM
Chain of Mast/stem cell growth factor receptor Kit (Homo sapiens), P10721 [L576P] (P10721 whole entry L576P): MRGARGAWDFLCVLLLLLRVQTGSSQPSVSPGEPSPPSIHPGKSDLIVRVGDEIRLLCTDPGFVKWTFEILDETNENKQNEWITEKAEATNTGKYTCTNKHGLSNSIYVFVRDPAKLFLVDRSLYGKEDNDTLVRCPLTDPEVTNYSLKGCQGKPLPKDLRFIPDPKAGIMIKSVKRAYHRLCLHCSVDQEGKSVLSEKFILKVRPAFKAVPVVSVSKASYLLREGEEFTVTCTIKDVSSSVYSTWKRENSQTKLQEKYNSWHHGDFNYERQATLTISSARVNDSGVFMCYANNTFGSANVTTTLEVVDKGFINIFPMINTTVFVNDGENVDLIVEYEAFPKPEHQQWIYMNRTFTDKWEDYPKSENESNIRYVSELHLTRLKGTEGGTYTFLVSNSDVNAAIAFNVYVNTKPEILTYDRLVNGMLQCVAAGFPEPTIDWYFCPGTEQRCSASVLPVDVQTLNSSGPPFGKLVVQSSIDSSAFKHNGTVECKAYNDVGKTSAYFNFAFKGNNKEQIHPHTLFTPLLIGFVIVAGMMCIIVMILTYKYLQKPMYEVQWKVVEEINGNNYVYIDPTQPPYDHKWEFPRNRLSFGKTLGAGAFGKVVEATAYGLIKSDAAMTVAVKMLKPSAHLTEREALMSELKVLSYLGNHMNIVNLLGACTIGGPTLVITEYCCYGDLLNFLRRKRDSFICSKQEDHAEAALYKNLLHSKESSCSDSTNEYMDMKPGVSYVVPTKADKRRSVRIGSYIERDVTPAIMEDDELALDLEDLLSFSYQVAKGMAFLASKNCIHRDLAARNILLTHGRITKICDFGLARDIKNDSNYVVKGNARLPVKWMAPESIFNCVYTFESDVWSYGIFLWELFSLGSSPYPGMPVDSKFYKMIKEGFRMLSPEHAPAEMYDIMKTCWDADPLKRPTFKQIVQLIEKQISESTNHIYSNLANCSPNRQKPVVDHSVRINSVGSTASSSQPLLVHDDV

[20] = test system: Leucine-rich repeat serine/threonine-protein kinase 2 (Homo sapiens), Q5S007 [G2019S]; conditions: Compound concentration 100.0 nM
[21] = molecular target: Muscle, skeletal receptor tyrosine-protein kinase (Homo sapiens) (UniProt O15146); conditions: Compound concentration 100.0 nM
[22] = molecular target: Serine/threonine-protein kinase Nek1 (Homo sapiens) (UniProt Q96PY6); conditions: Compound concentration 100.0 nM
[23] = molecular target: Mitogen-activated protein kinase 11 (Homo sapiens) (UniProt Q15759); conditions: Compound concentration 100.0 nM
Chain of Mitogen-activated protein kinase 11 (Homo sapiens) (Q15759 whole entry): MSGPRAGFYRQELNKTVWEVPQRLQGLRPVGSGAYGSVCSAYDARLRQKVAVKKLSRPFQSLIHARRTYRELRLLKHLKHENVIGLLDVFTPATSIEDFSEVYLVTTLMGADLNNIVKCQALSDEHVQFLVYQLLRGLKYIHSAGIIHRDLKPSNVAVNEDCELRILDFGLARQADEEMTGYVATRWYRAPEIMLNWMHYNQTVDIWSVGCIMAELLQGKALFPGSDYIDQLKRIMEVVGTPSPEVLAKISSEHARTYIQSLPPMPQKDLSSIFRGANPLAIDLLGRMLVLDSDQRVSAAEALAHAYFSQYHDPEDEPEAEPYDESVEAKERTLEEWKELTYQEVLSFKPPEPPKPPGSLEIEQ

[24] = molecular target: Cyclin-dependent kinase 17 (Homo sapiens) (UniProt Q00537); conditions: Compound concentration 100.0 nM
Chain of Cyclin-dependent kinase 17 (Homo sapiens) (Q00537 whole entry, looked up): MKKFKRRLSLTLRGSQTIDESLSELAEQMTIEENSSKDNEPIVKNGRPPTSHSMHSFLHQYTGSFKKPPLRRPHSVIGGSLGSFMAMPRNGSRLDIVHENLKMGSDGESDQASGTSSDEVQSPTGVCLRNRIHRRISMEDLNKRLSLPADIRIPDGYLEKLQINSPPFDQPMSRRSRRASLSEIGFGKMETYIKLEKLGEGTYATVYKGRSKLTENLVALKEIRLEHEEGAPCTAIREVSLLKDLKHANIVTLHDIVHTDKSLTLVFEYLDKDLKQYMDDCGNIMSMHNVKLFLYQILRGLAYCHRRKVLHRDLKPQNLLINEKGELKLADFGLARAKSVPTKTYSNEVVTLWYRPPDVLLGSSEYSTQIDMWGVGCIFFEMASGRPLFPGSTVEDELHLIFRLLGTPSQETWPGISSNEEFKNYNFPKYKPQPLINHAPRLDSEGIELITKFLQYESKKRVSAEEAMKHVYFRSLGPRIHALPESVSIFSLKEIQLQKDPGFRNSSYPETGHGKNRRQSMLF

[25] = molecular target: Cyclin-dependent kinase 14 (Homo sapiens) (UniProt O94921); conditions: Compound concentration 100.0 nM
[26] = test system: Phosphatidylinositol 4,5-bisphosphate 3-kinase catalytic subunit alpha isoform (Homo sapiens), P42336 [C420R]; conditions: Compound concentration 100.0 nM
[27] = molecular target: Phosphatidylinositol 4-phosphate 5-kinase type-1 gamma (Homo sapiens) (UniProt O60331); conditions: Compound concentration 100.0 nM
Chain of Phosphatidylinositol 4-phosphate 5-kinase type-1 gamma (Homo sapiens) (O60331 whole entry): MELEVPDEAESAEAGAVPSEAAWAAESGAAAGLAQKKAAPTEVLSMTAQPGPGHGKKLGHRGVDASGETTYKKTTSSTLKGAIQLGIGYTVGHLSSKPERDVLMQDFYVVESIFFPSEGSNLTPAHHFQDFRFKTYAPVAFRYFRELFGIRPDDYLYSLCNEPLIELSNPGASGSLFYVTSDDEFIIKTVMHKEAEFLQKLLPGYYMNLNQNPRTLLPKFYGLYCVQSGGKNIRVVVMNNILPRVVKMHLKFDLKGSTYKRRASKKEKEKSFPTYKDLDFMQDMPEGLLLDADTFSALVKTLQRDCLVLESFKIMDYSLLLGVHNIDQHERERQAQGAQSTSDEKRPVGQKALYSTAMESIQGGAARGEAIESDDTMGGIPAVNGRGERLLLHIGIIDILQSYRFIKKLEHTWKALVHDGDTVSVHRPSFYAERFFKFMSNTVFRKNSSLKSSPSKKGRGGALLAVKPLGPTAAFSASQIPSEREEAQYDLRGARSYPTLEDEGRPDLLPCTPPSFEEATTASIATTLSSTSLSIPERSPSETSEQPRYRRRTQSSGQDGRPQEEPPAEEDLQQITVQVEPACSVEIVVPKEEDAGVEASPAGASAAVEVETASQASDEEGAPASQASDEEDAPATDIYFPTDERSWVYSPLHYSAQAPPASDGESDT

[28] = test system: Proto-oncogene tyrosine-protein kinase receptor Ret (Homo sapiens), P07949 [M918T]; conditions: Compound concentration 100.0 nM
[29] = molecular target: Serine/threonine-protein kinase RIO3 (Homo sapiens) (UniProt O14730); conditions: Compound concentration 100.0 nM
Chain of Serine/threonine-protein kinase RIO3 (Homo sapiens) (O14730 whole entry): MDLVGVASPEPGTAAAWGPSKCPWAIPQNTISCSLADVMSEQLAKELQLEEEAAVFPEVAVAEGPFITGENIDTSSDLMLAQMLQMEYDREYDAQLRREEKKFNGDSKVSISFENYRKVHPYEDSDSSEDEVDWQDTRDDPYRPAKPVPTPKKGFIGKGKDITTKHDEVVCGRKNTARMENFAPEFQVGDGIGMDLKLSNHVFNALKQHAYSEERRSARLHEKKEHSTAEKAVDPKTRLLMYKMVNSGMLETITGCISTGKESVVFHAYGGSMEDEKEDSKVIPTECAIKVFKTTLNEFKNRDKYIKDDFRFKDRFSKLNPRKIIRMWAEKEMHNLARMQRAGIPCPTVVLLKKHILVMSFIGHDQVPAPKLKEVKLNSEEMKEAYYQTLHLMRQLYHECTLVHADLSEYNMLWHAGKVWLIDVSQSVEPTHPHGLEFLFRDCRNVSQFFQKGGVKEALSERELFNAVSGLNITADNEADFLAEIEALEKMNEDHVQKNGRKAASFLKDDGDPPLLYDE

[30] = molecular target: Ribosomal protein S6 kinase alpha-5 (Homo sapiens) (UniProt O75582); conditions: Compound concentration 100.0 nM
[31] = molecular target: Serine/threonine-protein kinase Sgk2 (Homo sapiens) (UniProt Q9HBY8); conditions: Compound concentration 100.0 nM
[32] = molecular target: STE20-like serine/threonine-protein kinase (Homo sapiens) (UniProt Q9H2G2); conditions: Compound concentration 100.0 nM
[33] = molecular target: Proto-oncogene tyrosine-protein kinase Src (Homo sapiens) (UniProt P12931); conditions: Compound concentration 100.0 nM
[34] = molecular target: Serine/threonine-protein kinase 32B (Homo sapiens) (UniProt Q9NY57); conditions: Compound concentration 100.0 nM
[35] = molecular target: Mitogen-activated protein kinase kinase kinase 19 (Homo sapiens) (UniProt Q56UN5); conditions: Compound concentration 100.0 nM
[36] = molecular target: 5-hydroxytryptamine receptor 1D (Homo sapiens) (UniProt P28221); conditions: Compound concentration 10.0 uM
[37] = molecular target: D(1A) dopamine receptor (Homo sapiens) (UniProt P21728); conditions: Compound concentration 10.0 uM
Chain of D(1A) dopamine receptor (Homo sapiens) (P21728 whole entry): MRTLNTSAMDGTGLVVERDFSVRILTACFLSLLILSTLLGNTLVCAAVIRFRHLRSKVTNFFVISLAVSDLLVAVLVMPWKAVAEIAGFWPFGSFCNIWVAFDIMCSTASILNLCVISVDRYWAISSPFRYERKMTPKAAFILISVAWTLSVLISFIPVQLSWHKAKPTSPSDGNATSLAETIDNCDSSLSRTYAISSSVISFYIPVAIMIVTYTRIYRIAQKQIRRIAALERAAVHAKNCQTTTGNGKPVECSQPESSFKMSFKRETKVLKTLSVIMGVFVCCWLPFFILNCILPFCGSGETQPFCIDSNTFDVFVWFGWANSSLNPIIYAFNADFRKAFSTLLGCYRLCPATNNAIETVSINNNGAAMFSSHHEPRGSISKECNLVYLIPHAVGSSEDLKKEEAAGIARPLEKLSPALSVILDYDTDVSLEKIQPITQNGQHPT

[38] = molecular target: D(3) dopamine receptor (Homo sapiens) (UniProt P35462); conditions: Compound concentration 10.0 uM
[39] = molecular target: T1, Alpha-1A adrenergic receptor (Homo sapiens) (UniProt P35348); conditions: Compound concentration 10.0 uM
T1 sequence (whole entry): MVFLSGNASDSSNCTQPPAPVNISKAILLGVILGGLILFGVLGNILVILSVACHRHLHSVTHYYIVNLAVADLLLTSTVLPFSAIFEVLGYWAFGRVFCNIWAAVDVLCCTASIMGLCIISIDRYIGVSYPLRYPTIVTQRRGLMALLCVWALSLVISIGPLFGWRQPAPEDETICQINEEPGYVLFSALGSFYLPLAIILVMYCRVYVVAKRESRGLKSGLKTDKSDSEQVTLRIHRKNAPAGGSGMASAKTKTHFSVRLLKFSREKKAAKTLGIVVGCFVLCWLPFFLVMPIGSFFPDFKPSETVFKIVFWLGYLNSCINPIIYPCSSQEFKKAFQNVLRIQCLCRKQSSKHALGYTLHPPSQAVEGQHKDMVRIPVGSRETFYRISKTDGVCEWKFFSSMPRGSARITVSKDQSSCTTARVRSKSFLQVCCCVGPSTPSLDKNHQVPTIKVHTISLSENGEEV

Chain of Activin receptor type-2B (Homo sapiens) (Q13705 whole entry): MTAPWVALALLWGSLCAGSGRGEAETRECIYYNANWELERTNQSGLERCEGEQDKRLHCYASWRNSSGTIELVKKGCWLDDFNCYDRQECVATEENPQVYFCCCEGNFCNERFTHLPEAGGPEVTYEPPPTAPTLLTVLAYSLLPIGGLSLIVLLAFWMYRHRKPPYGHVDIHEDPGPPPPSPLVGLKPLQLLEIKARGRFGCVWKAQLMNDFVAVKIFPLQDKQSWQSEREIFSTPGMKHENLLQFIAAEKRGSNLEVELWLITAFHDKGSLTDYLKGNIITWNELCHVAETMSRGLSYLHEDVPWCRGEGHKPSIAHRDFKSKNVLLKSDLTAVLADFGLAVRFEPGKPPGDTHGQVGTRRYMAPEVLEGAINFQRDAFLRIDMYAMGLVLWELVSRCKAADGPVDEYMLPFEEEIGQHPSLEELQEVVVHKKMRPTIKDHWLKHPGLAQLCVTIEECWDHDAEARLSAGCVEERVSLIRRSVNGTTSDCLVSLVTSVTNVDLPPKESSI

SMILES	Ki [1]	residual activity [2] [%]	residual activity [3] [%]	residual activity [4] [%]	residual activity [5] [%]	residual activity [6] [%]	residual activity [7] [%]	residual activity [8] [%]	residual activity [9] [%]	residual activity [10] [%]	residual activity [11] [%]	residual activity [12] [%]	residual activity [13] [%]	residual activity [14] [%]	residual activity [15] [%]	residual activity [16] [%]	residual activity [17] [%]	residual activity [18] [%]	residual activity [19] [%]	residual activity [20] [%]	further results
COCCOc1nc(-c2ccc(Cl)nc2)nc2c1CN(C(=O)c1ncn3ccccc13)CC2 [THPP-1]	5.9 µM (not active)	75	93	100	63	82	77	61	100	85	100	99	79	100	100	64	100	100	100	100	residual activity [21]: 100%; residual activity [22]: 100%; residual activity [23]: 100%; residual activity [24]: 100%; residual activity [25]: 100%; residual activity [26]: 95%; residual activity [27]: 67%; residual activity [28]: 90%; residual activity [29]: 100%; residual activity [30]: 100%; residual activity [31]: 88%; residual activity [32]: 100%; residual activity [33]: 95%; residual activity [34]: 100%; residual activity [35]: 100%; inhibition [36]: 8.09%; inhibition [37]: -8.34%; inhibition [38]: -6.15%; inhibition [39]: 12.7%
CC(C)CC(=O)N1CCc2nc(-c3ccc(Br)cc3)nc(N(C)Cc3ccccc3)c2C1 [THPP-1-NC]	9.83 µM (not active)	100	100	100	62	80	65	63	100	100	99	100	80	100	95	68	100	100	94	100	residual activity [21]: 100%; residual activity [22]: 100%; residual activity [23]: 100%; residual activity [24]: 100%; residual activity [25]: 100%; residual activity [26]: 87%; residual activity [27]: 85%; residual activity [28]: 100%; residual activity [29]: 100%; residual activity [30]: 100%; residual activity [31]: 94%; residual activity [32]: 100%; residual activity [33]: 100%; residual activity [34]: 87%; residual activity [35]: 100%; inhibition [36]: 22.6%; inhibition [37]: 18.5%; inhibition [38]: 5.44%; inhibition [39]: -1.11%
